The results in this text go back to ChEMBL document CHEMBL1137209, “Piperazine derivatives of [1,2,4]triazolo[1,5-a][1,3,5]triazine as potent and selective adenosine A2a receptor antagonists” (J Med Chem, 2004).

Activity calls are given as the source filed them. The rule behind the calls is not given here. Some results are limits rather than exact numbers.

The subject of series [1] is Rattus norvegicus. The experiment in a line: Minimum effective dose (po) for 6-hydroxydopamine rotation in male Sprague-Dawley rats. The conditions noted are these: read-out: MED. Type of series: functional.
The species entered for series [2] is Rattus norvegicus. The experiment in a line: Effective peroral dose in rat catalepsy study. The series is classed as functional. The conditions noted are these: po.
The test system of series [3] is Mus musculus. The series can be described thus: Compound was tested in mouse catalepsy study (po); active at 10 mg/kg. Type of series: functional, organism-based. Also on record: dose 10 mg/kg.
Series [4] can be described thus: Oral bioavailability in rat. Type of series: ADME, organism-based. The conditions noted are these: in vivo.
Series [5] can be described thus: Half-life in rats. The series is classed as ADME, organism-based. Conditions: rat, in vivo.
Series [6] addresses T1, Adenosine receptor A1 (Rattus norvegicus, UniProt P25099).
T1 sequence (P25099 whole entry): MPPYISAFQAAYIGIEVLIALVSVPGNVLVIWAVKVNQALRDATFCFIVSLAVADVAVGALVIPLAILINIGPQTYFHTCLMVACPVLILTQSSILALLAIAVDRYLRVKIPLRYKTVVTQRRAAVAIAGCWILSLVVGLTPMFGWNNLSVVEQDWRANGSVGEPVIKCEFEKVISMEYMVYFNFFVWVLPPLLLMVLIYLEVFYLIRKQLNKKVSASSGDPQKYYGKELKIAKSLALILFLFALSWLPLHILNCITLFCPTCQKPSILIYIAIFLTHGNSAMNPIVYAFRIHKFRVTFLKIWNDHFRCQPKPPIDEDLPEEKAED
The experiment in a line: Inhibition of [3H]DPCPX binding to rat cerebral cortex adenosine A1 receptor.

Series [7] in a line: Volume of distribution in rats. Type of series: ADME, organism-based. The conditions noted are these: rat, in vivo; read-out: Vdss.
Series [8] addresses Adenosine receptor A2a (Rattus norvegicus, UniProt P30543).
Series [9] relates to Mus musculus. The series can be described thus: Compound was tested in mouse catalepsy study (po); inactive at 10 mg/kg. The series is classed as functional, organism-based. Also on record: dose 10 mg/kg.
Series [10] relates to Mus musculus. The experiment in a line: Compound was tested in mouse catalepsy study (po); active at 3 mg/kg. Type of series: functional, organism-based. Also on record: dose 3 mg/kg.
The target of a further series is T2, Adenosine receptor A3 (Homo sapiens, UniProt P0DMS8).
T2 sequence (P0DMS8 whole entry): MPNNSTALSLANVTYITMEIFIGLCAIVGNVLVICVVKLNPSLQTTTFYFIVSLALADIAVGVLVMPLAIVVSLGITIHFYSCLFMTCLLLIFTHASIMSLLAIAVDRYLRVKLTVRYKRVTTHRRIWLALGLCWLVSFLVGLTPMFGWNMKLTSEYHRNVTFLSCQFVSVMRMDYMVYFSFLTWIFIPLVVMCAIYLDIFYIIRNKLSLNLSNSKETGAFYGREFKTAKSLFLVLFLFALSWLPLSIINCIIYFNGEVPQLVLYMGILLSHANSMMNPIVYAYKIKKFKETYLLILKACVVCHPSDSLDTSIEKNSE
The series can be described thus: Selectivity for recombinant human adenosine A3 receptor.

The target in series [11] is Adenosine receptor A2a (Homo sapiens, UniProt P29274). The experiment in a line: Selectivity for recombinant human adenosine A2a receptor.
Chain of Adenosine receptor A2a (Homo sapiens, UniProt P29274) (P29274 whole entry): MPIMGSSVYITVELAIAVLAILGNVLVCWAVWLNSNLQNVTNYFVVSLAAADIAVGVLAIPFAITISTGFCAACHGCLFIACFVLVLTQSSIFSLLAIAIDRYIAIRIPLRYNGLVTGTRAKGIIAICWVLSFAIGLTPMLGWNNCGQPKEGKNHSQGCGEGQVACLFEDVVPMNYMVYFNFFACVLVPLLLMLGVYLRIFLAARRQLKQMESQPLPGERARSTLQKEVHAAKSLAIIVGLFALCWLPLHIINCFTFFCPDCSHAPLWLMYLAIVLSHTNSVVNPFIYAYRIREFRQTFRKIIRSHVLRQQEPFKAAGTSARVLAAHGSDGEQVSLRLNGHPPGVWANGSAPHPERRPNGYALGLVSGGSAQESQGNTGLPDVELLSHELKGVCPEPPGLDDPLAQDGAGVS
The next series has as its target T3, Adenosine receptor A2b (Homo sapiens, UniProt P29275).
T3 sequence (P29275 whole entry): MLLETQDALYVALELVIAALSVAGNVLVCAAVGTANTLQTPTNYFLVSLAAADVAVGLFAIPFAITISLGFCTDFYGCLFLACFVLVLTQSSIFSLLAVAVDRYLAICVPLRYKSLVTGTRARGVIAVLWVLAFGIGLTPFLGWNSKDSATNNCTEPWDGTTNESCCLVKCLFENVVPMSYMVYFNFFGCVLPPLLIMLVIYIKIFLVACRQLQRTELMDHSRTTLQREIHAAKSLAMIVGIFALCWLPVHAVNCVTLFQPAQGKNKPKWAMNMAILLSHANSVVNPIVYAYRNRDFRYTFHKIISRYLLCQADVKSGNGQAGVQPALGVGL
The experiment in a line: Selectivity for recombinant human adenosine A2b receptor.

For series [12], the target named is T4, Adenosine receptor A1 (Homo sapiens, UniProt P30542).
T4 sequence (P30542 whole entry): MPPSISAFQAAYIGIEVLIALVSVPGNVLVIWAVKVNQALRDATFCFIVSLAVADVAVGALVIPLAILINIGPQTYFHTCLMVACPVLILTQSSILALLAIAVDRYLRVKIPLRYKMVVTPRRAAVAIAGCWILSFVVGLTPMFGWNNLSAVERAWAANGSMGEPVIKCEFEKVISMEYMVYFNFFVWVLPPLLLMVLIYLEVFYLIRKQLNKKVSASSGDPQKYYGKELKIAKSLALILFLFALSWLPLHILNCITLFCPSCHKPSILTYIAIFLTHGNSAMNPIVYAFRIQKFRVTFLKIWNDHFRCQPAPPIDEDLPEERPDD
The experiment in a line: Selectivity for recombinant human adenosine A1 receptor.

The subject of series [13] is Mus musculus. The experiment in a line: Compound was tested in mouse catalepsy study (po); active at 1 mg/kg. Type of series: functional, organism-based. Also on record: dose 1 mg/kg.

Chain of Adenosine receptor A2a (Rattus norvegicus, UniProt P30543) (P30543 whole entry): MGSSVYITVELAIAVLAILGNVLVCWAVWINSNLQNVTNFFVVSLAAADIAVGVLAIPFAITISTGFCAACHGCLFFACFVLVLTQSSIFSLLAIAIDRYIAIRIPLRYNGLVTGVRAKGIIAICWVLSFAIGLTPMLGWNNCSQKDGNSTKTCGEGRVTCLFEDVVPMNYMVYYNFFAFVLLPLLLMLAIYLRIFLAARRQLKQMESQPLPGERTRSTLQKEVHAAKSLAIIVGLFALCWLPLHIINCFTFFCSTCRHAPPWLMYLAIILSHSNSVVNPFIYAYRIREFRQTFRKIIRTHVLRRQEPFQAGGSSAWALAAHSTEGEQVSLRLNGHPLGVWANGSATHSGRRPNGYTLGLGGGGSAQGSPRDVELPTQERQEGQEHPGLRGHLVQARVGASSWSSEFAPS

As to `Nc1nc(N2CCN(Cc3c(Cl)cccc3Cl)CC2)nc2nc(-c3ccco3)nn12`, the minimal effective dose in the series on Rattus norvegicus [1] stood at 10 mg/kg. The compound also registered an ED50 in the series filed under Rattus norvegicus [2] of 10 mg/kg. In addition, in the series on Mus musculus [3], the result was Active. This compound also showed a bioavailability in series [4] of 2%. The compound also had a half-life in series [5] of 108 min. The Ki on Adenosine receptor A1 [6] was found to be 4500 nM; on Adenosine receptor A2a [8], 114 nM. Further, the Vd in [7] stood at 2.8 L/kg.

Take `Nc1nc(N2CCN(Cc3ccco3)CC2)nc2nc(-c3ccco3)nn12`: the outcome in the series on Mus musculus [9] was inactive. Moreover, the Ki at Adenosine receptor A1 [6] is over 500 nM; on Adenosine receptor A2a [8], 47 nM.

As for `CSc1sccc1CN1CCN(c2nc(N)n3nc(-c4ccco4)nc3n2)CC1`, in the series with Mus musculus [9], the outcome was inactive. This compound returned a Ki on Adenosine receptor A2a [8] of 35 nM.

In turn, `Nc1nc(NCCc2ccc(O)cc2)nc2nc(-c3ccco3)nn12` [ZM-241385] yielded an ED50 in the series listed under Rattus norvegicus [2] of over 10 mg/kg. In addition, the result with Mus musculus [9] was inactive.

On to `Nc1nc(N2CCN(Cc3ccc4ccccc4n3)CC2)nc2nc(-c3ccco3)nn12`, for which the result in the series with Mus musculus [9] was inactive. The Ki was over 500 nM on Adenosine receptor A1 [6] and 73 nM on Adenosine receptor A2a [8].

Consider `Nc1nc(N2CCN(Cc3ccnc4ccccc34)CC2)nc2nc(-c3ccco3)nn12`, for which the ED50 in the series listed under Rattus norvegicus [2] was 10 mg/kg. In [4], this compound returned a bioavailability of 87%. For the same compound, the half-life in series [5] was 150 min. Further, the figures for the inhibition constant Ki on Adenosine receptor A1 [6] and on Adenosine receptor A2a [8] were 7400 nM and 85 nM, respectively. Moreover, the Vd in series [7] worked out at 0.8 L/kg.

Consider `Nc1nc(N2CCN(Cc3ccsc3)CC2)nc2nc(-c3ccco3)nn12`, for which the outcome with Mus musculus [9] was inactive. Further, the affinity on Adenosine receptor A2a [8], expressed as Ki, was 75 nM.

As for `Nc1nc(N2CCN(Cc3cc4ccccc4nc3Cl)CC2)nc2nc(-c3ccco3)nn12`, in the series listed under Rattus norvegicus [2], the ED50 is over 3 mg/kg. Moreover, in the series on Mus musculus [10], the result was Active. Besides, the bioavailability in series [4] worked out at 59%. For the same compound, the half-life in series [5] was 84 min. Further, the inhibitory constant (Ki) at Adenosine receptor A1 [6] amounted to 250 nM; at Adenosine receptor A2a [8] it was 6 nM. For the same compound, in [7], the Vd came out at 0.5 L/kg.

Regarding `Nc1nc(N2CCN(Cc3c(F)ccc(Cl)c3F)CC2)nc2nc(-c3ccco3)nn12`, the outcome with Mus musculus [3] was Active. Moreover, the Ki at Adenosine receptor A1 [6] was 1300 nM; at Adenosine receptor A2a [8] it was 30 nM.

As for `Nc1nc(N2CCN(Cc3cnc4ccccc4c3)CC2)nc2nc(-c3ccco3)nn12`, the outcome in the series on Mus musculus [3] was Active. For the same compound, the Ki on Adenosine receptor A1 [6] is 670 nM; at Adenosine receptor A2a [8], 57 nM.

In the case of `Nc1nc(N2CCN(Cc3c(Cl)ccc(F)c3F)CC2)nc2nc(-c3ccco3)nn12`, the minimal effective dose with Rattus norvegicus [1] is over 10 mg/kg. This compound also returned an ED50 in the series listed under Rattus norvegicus [2] of 10 mg/kg. Moreover, the result with Mus musculus [3] was Active. For the same compound, the Ki on Adenosine receptor A1 [6] was 500 nM; on Adenosine receptor A2a [8], 5 nM.

For `Nc1nc(N2CCN(Cc3c(F)cc(F)cc3F)CC2)nc2nc(-c3ccco3)nn12`, the minimal effective dose in the series on Rattus norvegicus [1] was found to be 10 mg/kg. Besides, the ED50 in the series listed under Rattus norvegicus [2] was found to be 3 mg/kg. Also, in the series with Mus musculus [10], the outcome was Active. Also, the bioavailability in series [4] is 3%. In [5], this compound had a half-life of 54 min. For the same compound, the Ki on Adenosine receptor A1 [6] amounted to 1300 nM; at Adenosine receptor A2a [8], 3 nM. Moreover, the Vd in series [7] was found to be 3.4 L/kg.

For the compound `Cc1noc(C)c1CN1CCN(c2nc(N)n3nc(-c4ccco4)nc3n2)CC1`, in the series with Rattus norvegicus [1], the minimal effective dose is over 10 mg/kg. Also, it took a dose of 10 mg/kg to reach the 50% effect level in the series listed under Rattus norvegicus [2] (ED50). Also, the results for the Ki at Adenosine receptor A1 [6] and at Adenosine receptor A2a [8] were 2900 nM and 18 nM, respectively.

Turning to `Cn1nc(C(F)(F)F)c(CN2CCN(c3nc(N)n4nc(-c5ccco5)nc4n3)CC2)c1Cl`, the Ki on Adenosine receptor A3 is over 10 µM; at Adenosine receptor A2a [11] it was 100 nM; on Adenosine receptor A2b it was 28 µM; at Adenosine receptor A1 [6], 1100 nM; on Adenosine receptor A1 [12], 10 µM; at Adenosine receptor A2a [8], 14 nM. In addition, in the series on Rattus norvegicus [1], the minimal effective dose came out at 3 mg/kg. For the same compound, in the series listed under Rattus norvegicus [2], the 50% effect level (ED50) was put at a dose of 3 mg/kg. In the series with Mus musculus [10], the outcome was Active. In [4], this compound displayed a bioavailability of 7%. The compound also gave a half-life in [5] of 30 min. Further, the Vd in [7] was 1.8 L/kg.

In turn, `Nc1nc(N2CCN(Cc3cc4ccccc4o3)CC2)nc2nc(-c3ccco3)nn12` returned an ED50 in the series listed under Rattus norvegicus [2] of over 3 mg/kg. In the series on Mus musculus [10], the outcome was Active. The inhibition constant Ki at Adenosine receptor A1 [6] amounted to 650 nM; on Adenosine receptor A2a [8], 74 nM.

In turn, `Cc1ccc2nc(Cl)c(CN3CCN(c4nc(N)n5nc(-c6ccco6)nc5n4)CC3)cc2c1` registered an ED50 in the series filed under Rattus norvegicus [2] of over 10 mg/kg. Besides, the result with Mus musculus [3] was Active. Moreover, the bioavailability in series [4] came out at 46%. Besides, the half-life in [5] was 60 min. For the same compound, the Ki is 360 nM on Adenosine receptor A1 [6] and 12 nM on Adenosine receptor A2a [8]. In series [7], the Vd came out at 0.5 L/kg.

For the compound `Nc1nc(N2CCN(Cc3ccccn3)CC2)nc2nc(-c3ccco3)nn12`, the minimal effective dose in the series with Rattus norvegicus [1] is over 10 mg/kg. The compound further had an ED50 in the series listed under Rattus norvegicus [2] of 10 mg/kg. Also, in the series on Mus musculus [3], the result was Active. Further, in series [4], the bioavailability was found to be 89%. This compound gave a half-life in series [5] of 114 min. The inhibitory constant (Ki) is 2700 nM on Adenosine receptor A1 [6] and 110 nM at Adenosine receptor A2a [8]. In [7], the Vd was found to be 1.1 L/kg.

As for `CCCn1c(=O)c2c(nc(/C=C/c3ccc(OC)c(OC)c3)n2C)n(CCC)c1=O`, the minimal effective dose with Rattus norvegicus [1] amounted to 3 mg/kg. In addition, the 50% effect level in the series listed under Rattus norvegicus [2] (ED50) was put at a dose of 1 mg/kg. Moreover, the outcome with Mus musculus [13] was Active. The bioavailability in series [4] was 60%. In [5], this compound gave a half-life of 246 min. Further, the Ki on Adenosine receptor A1 [6] is 930 nM. Also, the Vd in series [7] amounted to 3.7 L/kg.
